Test results: patent publication US20230085307A1, “PYRIDAZINONE COMPOUND AND HERBICIDE” (NISSAN CHEMICAL CORPORATION, priority 2019, published 2023)

Experiments:
green foxtail = experiment: Test Example 5: herbicidal effect by foliage application, plastic box (Table 20, symbol G); format: in vivo, green foxtail (Setaria viridis); details: 320 g/ha; for herbicidal effect on G: green foxtail (evaluation grade 0-5): foliage application after 14-day growth, evaluated three weeks after application
How it was run: (§1)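 Post-emergence foliar test in sterilized diluvial soil. Compound applied as water-diluted emulsion at a predetermined rate to 14-day-old plants; evaluation at three weeks.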

rice flat sedge = experiment: Test Example 3: herbicidal effect by foliage application, Wagner pot (Table 18, symbol E); format: in vivo, rice flat sedge (Cyperus iria); details: for herbicidal effect on rice flat sedge (E): 320 g/ha
How it was run: (§2)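 Plants were sown in alluvial soil held under 0.1–0.5 cm standing water and grown 14 days in a greenhouse at 25–30 °C. An emulsifiable formulation, water-diluted to the set dose, was then sprayed onto the foliage, and effects were scored three weeks later using previously defined criteria.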

lambsquarters [1] = experiment: Test Example 4: herbicidal effect by soil treatment (Table 19, symbol O); format: in vivo, lambsquarters (Chenopodium album); details: amount of applied herbicide 320 g/ha
How it was run: (§3)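 Emulsion of test compound, water-diluted to predetermined amount, sprayed on soil after sowing (seed depth ~1.5 cm, sterilized diluvial soil). Greenhouse, 25–30° C. Effect graded at three weeks post-spray.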

oval-leafed pondweed [2] = experiment: Test Example 1: herbicidal activity, application before weed generation under submerged conditions (Table 16, symbol C); format: in vivo, oval-leafed pondweed (Monochoria vaginalis); details: amount of applied herbicide 320 g/ha
How it was run: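 Alluvial soil was flooded to 4 cm depth, weed seeds were sown mixed and 2.5-leaf rice seedlings were transplanted. On sowing day, the compound's emulsion, diluted in water to a set dose, was applied to the water surface. Plants grew at 25–30 °C and were scored 0–5 after three weeks.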

barnyard grass = experiment: Test Example 5: herbicidal effect by foliage application, plastic box (Table 20, symbol H); format: in vivo, barnyard grass (Echinochloa crus-galli); details: 320 g/ha; for herbicidal effect on H: barnyard grass (evaluation grade 0-5): foliage application after 14-day growth, evaluated three weeks after application
How it was run: as §1

persian speedwell = experiment: Test Example 5: herbicidal effect by foliage application, plastic box (Table 20, symbol R); format: in vivo, Persian speedwell (Veronica persica); details: 320 g/ha; for herbicidal effect on R: persian speedwell (evaluation grade 0-5): foliage application after 14-day growth, evaluated three weeks after application
How it was run: as §1

windgrass [3] = experiment: Test Example 5: herbicidal effect by foliage application, plastic box (Table 20, symbol L); format: in vivo, windgrass (Apera spica-venti); details: 320 g/ha; for herbicidal effect on L: windgrass (evaluation grade 0-5): foliage application after 14-day growth, evaluated three weeks after application
How it was run: as §1

oval-leafed pondweed [4] = experiment: Test Example 2: herbicidal activity, application during weed generation under submerged conditions (Table 17, symbol C); format: in vivo, oval-leafed pondweed (Monochoria vaginalis); details: AAH 320 g/ha; application during weed generation, submerged conditions
How it was run: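 Wagner pot, alluvial soil, 4 cm flood; mixed sowing of all species; greenhouse 25° C.–30° C. Emulsifiable formulation, water-diluted to predetermined dose, applied to paddy water at 1–2 leaf stage. Effect rated at 3 wk using the earlier test's scoring criteria.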

Chinese sprangletop = experiment: Test Example 3: herbicidal effect by foliage application, Wagner pot (Table 18, symbol D); format: in vivo, chinese sprangletop (Leptochloa chinensis); details: for herbicidal effect on Chinese sprangletop (D): 320 g/ha
How it was run: as §2

lambsquarters [5] = experiment: Test Example 5: herbicidal effect by foliage application, plastic box (Table 20, symbol O); format: in vivo, lambsquarters (Chenopodium album); details: 320 g/ha; for herbicidal effect on O: lambsquarters (evaluation grade 0-5): foliage application after 14-day growth, evaluated three weeks after application
How it was run: as §1

redroot pigweed = experiment: Test Example 4: herbicidal effect by soil treatment (Table 19, symbol N); format: in vivo, redroot pigweed (Amaranthus retroflexus); details: amount of applied herbicide 320 g/ha
How it was run: as §3

velvetleaf = experiment: Test Example 4: herbicidal effect by soil treatment (Table 19, symbol M); format: in vivo, velvetleaf (Abutilon theophrasti); details: amount of applied herbicide 320 g/ha
How it was run: as §3

southern crabgrass [6] = experiment: Test Example 4: herbicidal effect by soil treatment (Table 19, symbol F); format: in vivo, southern crabgrass (Digitaria ciliaris); details: amount of applied herbicide 320 g/ha
How it was run: as §3

southern crabgrass [7] = experiment: Test Example 5: herbicidal effect by foliage application, plastic box (Table 20, symbol F); format: in vivo, southern crabgrass (Digitaria ciliaris); details: 320 g/ha; for herbicidal effect on F: southern crabgrass (evaluation grade 0-5): foliage application after 14-day growth, evaluated three weeks after application
How it was run: as §1

false cleavers = experiment: Test Example 4: herbicidal effect by soil treatment (Table 19, symbol Q); format: in vivo, false cleavers (Galium spurium); details: amount of applied herbicide 320 g/ha
How it was run: as §3

windgrass [8] = experiment: Test Example 4: herbicidal effect by soil treatment (Table 19, symbol L); format: in vivo, windgrass (Apera spica-venti); details: amount of applied herbicide 320 g/ha
How it was run: as §3

chickweed = experiment: Test Example 5: herbicidal effect by foliage application, plastic box (Table 20, symbol P); format: in vivo, common chickweed (Stellaria media); details: 320 g/ha; for herbicidal effect on P: chickweed (evaluation grade 0-5): foliage application after 14-day growth, evaluated three weeks after application
How it was run: as §1

[9] = foliage application, three weeks after application
[10] = amount of applied herbicide 320 g/ha

Compound	O: lambsquarters, herbicidal effect grade (lambsquarters [1])	Herbicidal effect, C: oval-leafed pondweed (oval-leafed pondweed [2])	herbicidal effect rating, C: oval-leafed pondweed (oval-leafed pondweed [4])	N: redroot pigweed, herbicidal effect grade (redroot pigweed)	M: velvetleaf, herbicidal effect grade (velvetleaf)	F: southern crabgrass, herbicidal effect grade (southern crabgrass [6])	herbicidal effect on G: green foxtail (evaluation grade 0-5) (green foxtail)	herbicidal effect on rice flat sedge (E) (rice flat sedge)	Herbicidal effect by soil treatment, O: lambsquarters (lambsquarters [1])	herbicidal effect on H: barnyard grass (evaluation grade 0-5) (barnyard grass)	herbicidal effect on R: persian speedwell (evaluation grade 0-5) (persian speedwell)	Herbicidal effect by soil treatment, L: windgrass (windgrass [8])	herbicidal effect on L: windgrass (evaluation grade 0-5) (windgrass [3])	herbicidal effect on Chinese sprangletop (D) (Chinese sprangletop)	herbicidal effect on O: lambsquarters (evaluation grade 0-5) (lambsquarters [5])	Herbicidal effect by soil treatment, N: redroot pigweed (redroot pigweed)	Herbicidal effect by soil treatment, M: velvetleaf (velvetleaf)	Herbicidal effect by soil treatment, F: southern crabgrass (southern crabgrass [6])	herbicidal effect on F: southern crabgrass (evaluation grade 0-5) (southern crabgrass [7])	herbicidal effect on P: chickweed (evaluation grade 0-5) (chickweed)	also measured
Cc1nn(C)c(=O)c(-c2c(-c3ccc(OC(C)C)cc3)oc3ccc(F)cc23)c1O [9-025]	4 (Herbicidal rate of 70% or more and less than 90%)	5 (Herbicidal rate of 90% or more (almost completely withered))	4 (Herbicidal rate of 70% or more and less than 90%)	3 (Herbicidal rate of 40% or more and less than 70%)	3 (Herbicidal rate of 40% or more and less than 70%)	4 (Herbicidal rate of 70% or more and less than 90%)															herbicidal effect on green foxtail (G) (green foxtail; [9]): 0 (Herbicidal rate of 5% or less (almost no effect)); Herbicidal effect on E (rice flat sedge), foliage application (rice flat sedge; [10]): 5 (Herbicidal rate of 90% or more (almost completely withered)); herbicidal effect on barnyard grass (H) (barnyard grass; [9]): 4 (Herbicidal rate of 70% or more and less than 90%); herbicidal effect on persian speedwell (R) (persian speedwell; [9]): 5 (Herbicidal rate of 90% or more (almost completely withered)); herbicidal effect on windgrass (L) (windgrass [3]; [9]): 0 (Herbicidal rate of 5% or less (almost no effect)); Herbicidal effect on D (Chinese sprangletop), foliage application (Chinese sprangletop; [10]): 2 (Herbicidal rate of 20% or more and less than 40%); herbicidal effect on lambsquarters (O) (lambsquarters [5]; [9]): 4 (Herbicidal rate of 70% or more and less than 90%); herbicidal effect on southern crabgrass (F) (southern crabgrass [7]; [9]): 5 (Herbicidal rate of 90% or more (almost completely withered)); Q: false cleavers, herbicidal effect grade (false cleavers): 0 (Herbicidal rate of 5% or less (almost no effect))
CCCC(=O)Oc1c(C)nn(C)c(=O)c1-c1c(-c2ccc(OC)cc2)sc2c(Cl)cccc12 [4-024]		3 (Herbicidal rate of 40% or more and less than 70%)	0 (Herbicidal rate of 5% or less (almost no effect))				4 (Herbicidal rate of 70% or more and less than 90%)	5 (Herbicidal rate of 90% or more (almost completely withered))	0 (Herbicidal rate of 5% or less (almost no effect))	4 (Herbicidal rate of 70% or more and less than 90%)	4 (Herbicidal rate of 70% or more and less than 90%)	0 (Herbicidal rate of 5% or less (almost no effect))	4 (Herbicidal rate of 70% or more and less than 90%)	3 (Herbicidal rate of 40% or more and less than 70%)	3 (Herbicidal rate of 40% or more and less than 70%)	3 (Herbicidal rate of 40% or more and less than 70%)	0 (Herbicidal rate of 5% or less (almost no effect))	0 (Herbicidal rate of 5% or less (almost no effect))	1 (Herbicidal rate of 5% or more and less than 20%)	5 (Herbicidal rate of 90% or more (almost completely withered))	
COc1ccccc1-c1sc2cc(SC)ccc2c1-c1c(O)c(C)nn(C)c1=O [3-163]		3 (Herbicidal rate of 40% or more and less than 70%)	0 (Herbicidal rate of 5% or less (almost no effect))				5 (Herbicidal rate of 90% or more (almost completely withered))	3 (Herbicidal rate of 40% or more and less than 70%)	3 (Herbicidal rate of 40% or more and less than 70%)	5 (Herbicidal rate of 90% or more (almost completely withered))	5 (Herbicidal rate of 90% or more (almost completely withered))	3 (Herbicidal rate of 40% or more and less than 70%)	5 (Herbicidal rate of 90% or more (almost completely withered))	5 (Herbicidal rate of 90% or more (almost completely withered))	4 (Herbicidal rate of 70% or more and less than 90%)	5 (Herbicidal rate of 90% or more (almost completely withered))	1 (Herbicidal rate of 5% or more and less than 20%)	4 (Herbicidal rate of 70% or more and less than 90%)	5 (Herbicidal rate of 90% or more (almost completely withered))	5 (Herbicidal rate of 90% or more (almost completely withered))	
COc1ccccc1-c1sc2cc(OC(F)F)ccc2c1-c1c(O)c(C)nn(C)c1=O [3-113]	5 (Herbicidal rate of 90% or more (almost completely withered))	2 (Herbicidal rate of 20% or more and less than 40%)	0 (Herbicidal rate of 5% or less (almost no effect))	5 (Herbicidal rate of 90% or more (almost completely withered))	4 (Herbicidal rate of 70% or more and less than 90%)	4 (Herbicidal rate of 70% or more and less than 90%)		5 (Herbicidal rate of 90% or more (almost completely withered))						3 (Herbicidal rate of 40% or more and less than 70%)							G: green foxtail, herbicidal effect grade (green foxtail; [9]): 5 (Herbicidal rate of 90% or more (almost completely withered)); H: barnyard grass, herbicidal effect grade (barnyard grass; [9]): 5 (Herbicidal rate of 90% or more (almost completely withered)); R: persian speedwell, herbicidal effect grade (persian speedwell; [9]): 5 (Herbicidal rate of 90% or more (almost completely withered)); L: windgrass, herbicidal effect grade (windgrass [8]): 5 (Herbicidal rate of 90% or more (almost completely withered)); L: windgrass, herbicidal effect grade (windgrass [3]; [9]): 5 (Herbicidal rate of 90% or more (almost completely withered)); O: lambsquarters, herbicidal effect grade (lambsquarters [5]; [9]): 5 (Herbicidal rate of 90% or more (almost completely withered)); F: southern crabgrass, herbicidal effect grade (southern crabgrass [7]; [9]): 1 (Herbicidal rate of 5% or more and less than 20%); P: chickweed, herbicidal effect grade (chickweed; [9]): 5 (Herbicidal rate of 90% or more (almost completely withered))
CCCC(=O)Oc1c(C)nn(C)c(=O)c1-c1c(-c2ccc(OC(F)(F)F)cc2)sc2cc(F)ccc12 [3-144]		0 (Herbicidal rate of 5% or less (almost no effect))	2 (Herbicidal rate of 20% or more and less than 40%)				5 (Herbicidal rate of 90% or more (almost completely withered))	5 (Herbicidal rate of 90% or more (almost completely withered))	3 (Herbicidal rate of 40% or more and less than 70%)	4 (Herbicidal rate of 70% or more and less than 90%)	5 (Herbicidal rate of 90% or more (almost completely withered))	0 (Herbicidal rate of 5% or less (almost no effect))	0 (Herbicidal rate of 5% or less (almost no effect))	4 (Herbicidal rate of 70% or more and less than 90%)	5 (Herbicidal rate of 90% or more (almost completely withered))	4 (Herbicidal rate of 70% or more and less than 90%)	0 (Herbicidal rate of 5% or less (almost no effect))	1 (Herbicidal rate of 5% or more and less than 20%)	1 (Herbicidal rate of 5% or more and less than 20%)	5 (Herbicidal rate of 90% or more (almost completely withered))	
